Laboratory results taken from patent US20260184708A1, “PYRIDAZINONES AND METHODS OF USE THEREOF” (GFB (ABC), LLC, priority 2017, published 2026).
Like-named read-outs stand apart in the source and are kept apart here.

Biological target: T1, TRPC4 (Homo sapiens, UniProt Q9UBN4)
T1 construct: expressed in transfected cells; host or cells: HEK-TREx (HekTrex-293), cell line ICLN-1694, tetracycline-induced
T1 sequence (Q9UBN4 1-982 isoform Q9UBN4-5): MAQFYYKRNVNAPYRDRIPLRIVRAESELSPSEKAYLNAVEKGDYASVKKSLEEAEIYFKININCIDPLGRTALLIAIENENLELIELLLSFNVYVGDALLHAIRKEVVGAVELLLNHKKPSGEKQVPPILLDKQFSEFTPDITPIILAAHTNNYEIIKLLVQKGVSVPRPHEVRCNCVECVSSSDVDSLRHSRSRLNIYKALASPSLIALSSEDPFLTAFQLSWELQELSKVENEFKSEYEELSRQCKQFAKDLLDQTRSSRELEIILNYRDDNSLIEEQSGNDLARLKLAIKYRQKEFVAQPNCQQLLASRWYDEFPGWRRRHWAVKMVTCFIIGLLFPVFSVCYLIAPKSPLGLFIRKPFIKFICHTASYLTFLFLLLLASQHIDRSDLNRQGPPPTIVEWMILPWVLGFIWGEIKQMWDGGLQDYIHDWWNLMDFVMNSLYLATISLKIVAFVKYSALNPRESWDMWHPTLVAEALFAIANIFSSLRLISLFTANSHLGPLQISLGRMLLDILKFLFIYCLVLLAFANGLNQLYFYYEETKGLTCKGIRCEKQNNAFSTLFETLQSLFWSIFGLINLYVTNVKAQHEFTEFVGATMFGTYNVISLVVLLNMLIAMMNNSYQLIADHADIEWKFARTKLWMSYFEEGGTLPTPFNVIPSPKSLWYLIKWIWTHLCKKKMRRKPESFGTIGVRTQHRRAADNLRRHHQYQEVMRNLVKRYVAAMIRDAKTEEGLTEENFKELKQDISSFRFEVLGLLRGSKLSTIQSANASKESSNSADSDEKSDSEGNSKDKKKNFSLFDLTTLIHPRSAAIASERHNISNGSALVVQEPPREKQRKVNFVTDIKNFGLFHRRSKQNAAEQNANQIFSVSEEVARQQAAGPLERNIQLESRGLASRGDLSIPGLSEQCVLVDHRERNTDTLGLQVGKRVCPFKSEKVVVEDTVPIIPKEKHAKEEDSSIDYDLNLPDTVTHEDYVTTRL
Experiment: TRPC4 FLIPR Assay (HEK-TREx hTRPC4, Englerin A stimulation)
Type: cell-based
Procedure: FLIPR Assay Buffer (Earls Balanced Salt Solution (EBSS)) was prepared as follows:
10-point dose response curves were generated using the Echo-550 acoustic dispenser. Compound source plates were made by serially diluting compound stocks to create 10 mM, 1 mM, and 0.1 mM solutions in DMSO into Echo certified LDV plates. The Echo then serially spotted 100% DMSO stock solutions into source dose response plates to generate a 4-fold dilution scheme. 100% DMSO was added to the spotted dose response plates to bring the final volume to 5 μl. […] of the dose response stock plate was then spotted into pre-incubation and stimulation assay plates. […] of pre-incubation buffer and 100 μl of stimulation buffer was then added to the plates resulting in a final assay test concentration range of 30 μM to 0.0001 μM with a final DMSO concentration of 0.3%.
Experimental Methods: Cells expressing TRPC4 were plated onto 384 well, black pdl-coated microplates and maintained in TRPC4 growth media the day prior to use for experiments. TRPC4 expression was induced by the application of 1 μg/ml tetracycline at the time of plating. […] Cells were incubated at room temperature, protected from light, for 60-90 minutes. After the incubation period, the dye was removed and replaced with 10 μl of EBSS. Cell, pre-incubation and stimulation plates were loaded onto the FLIPR-II and the assay was initiated. The FLIPR measured a 10 second baseline and then added 10 μl of 2× compounds (or controls). Changes in fluorescence were monitored for an additional 5 minutes. After a 5 minute pre-incubation, 20 μl of 2× Englerin A (with 1× compound or controls) was added to the cell plate. The final Engerlin A stimulation concentration in the assay is 100 nM. After the Englerin A addition, changes in fluorescence were monitored for an additional 5 minutes.
Test Agent Effect: Test agent modulation of TRPC4 calcium response was determined as follows. After the Englerin A, fluorescence was monitored for a 5 minute period. The maximum relative fluorescence response (minus the control response of […] of the control inhibitor) was captured and exported from the FLIPR. Test agent effect was calculated as % inhibition using the following formula: % inhibition=((RFU TEST AGENT−Plate Average RFU REF INHIB)/(Plate Average RFU CONTROL−Plate Average RFU REF INHIB))×100

[1] = Table 8, HEK-TREx hTRPC4, read-out: TRPC4 FLIPR IC50

Row | IC50 [1] | IC50 | SMILES
1 | 1 to 5 µM |  | C[C@@H](c1ccccc1)n1nnc2c1CCN(c1cn[nH]c(=O)c1Cl)C2
2 | 1e-05 to 1 µM |  | CCc1ccccc1Cn1cnc2c1CCN(c1cn[nH]c(=O)c1Cl)C2
3 | 1e-05 to 1 µM |  | C[C@@H](c1ccccc1C(F)(F)F)n1nnc2c1CCN(c1cn[nH]c(=O)c1C#N)C2
4 | 1e-05 to 1 µM |  | Cc1ccccc1[C@@H](C)N1CCN(c2cn[nH]c(=O)c2Cl)CC1=O
5 | 1e-05 to 1 µM |  | C[C@@H](c1ccc(F)cc1C(F)(F)F)n1nnc2c1CCN(c1cn[nH]c(=O)c1Cl)C2
6 | 1e-05 to 1 µM |  | Cc1ccccc1Cn1cnc2c1CCN(c1cn[nH]c(=O)c1Cl)C2 [drawing 938]
7 | 1e-05 to 1 µM |  | O=c1[nH]ncc(N2CCc3c(ncn3Cc3ccccc3)C2)c1Cl [drawing 939]
8 | 1e-05 to 1 µM |  | C[C@H](c1ccccc1)n1cnc2c1CCN(c1cn[nH]c(=O)c1Cl)C2 [drawing 940]
9 | 1e-05 to 1 µM |  | O=c1[nH]ncc(N2CCc3c(nnn3Cc3ccccc3C(F)(F)F)C2)c1Cl [drawing 948]
10 | 1e-05 to 1 µM |  | O=c1[nH]ncc(N2CCc3c(ncn3Cc3ccccc3C(F)F)C2)c1Cl [drawing 952]
11 | 1 to 5 µM |  | O=c1[nH]ncc(N2CCc3c(ncn3-c3ccccc3C(F)(F)F)C2)c1Cl [drawing 954]
12 | 1e-05 to 1 µM |  | C[C@@H](c1ccccc1C(F)(F)F)n1nnc2c1CCN(c1cn[nH]c(=O)c1Cl)C2 [drawing 962]
13 | 1e-05 to 1 µM |  | COCc1ccccc1Cn1cnc2c1CCN(c1cn[nH]c(=O)c1Cl)C2 [drawing 965]
14 | 1e-05 to 1 µM |  | C[C@@H]1Cc2c(nnn2[C@@H](C)c2ccccc2C(F)(F)F)CN1c1cn[nH]c(=O)c1Cl [drawing 968]
15 | 1e-05 to 1 µM |  | C[C@H](c1ccccc1C(F)(F)F)n1nnc2c1CCN(c1cn[nH]c(=O)c1Cl)[C@H]2C [drawing 970]
16 | 1e-05 to 1 µM |  | C[C@H](c1ccccc1C(F)F)n1nnc2c1CCN(c1cn[nH]c(=O)c1Cl)C2 [drawing 977]
17 | 1e-05 to 1 µM |  | C[C@@H](c1ccccc1C(F)F)n1nnc2c1CCN(c1cn[nH]c(=O)c1Cl)C2 [drawing 980]
18 | 1e-05 to 1 µM |  | C[C@@H](c1ccc(F)cc1C(F)F)n1nnc2c1CCN(c1cn[nH]c(=O)c1Cl)C2 [drawing 981]
19 | 1e-05 to 1 µM |  | CNC(=O)c1nn([C@H](C)c2ccccc2C(F)F)c2c1CN(c1cn[nH]c(=O)c1Cl)CC2 [drawing 982]
20 | 1e-05 to 1 µM |  | COC[C@H](c1ccccc1C(F)(F)F)n1cnc2c1CCN(c1cn[nH]c(=O)c1Cl)C2 [drawing 988]
21 | 1e-05 to 1 µM |  | C[C@H](c1ccccc1C(F)(F)F)n1nc(C(N)=O)c2c1CCN(c1cn[nH]c(=O)c1Cl)C2 [drawing 990]
22 | 1e-05 to 1 µM |  | C[C@@H](c1cccnc1CC(F)F)n1nnc2c1CCN(c1cn[nH]c(=O)c1Cl)C2 [drawing 991]
23 | 1e-05 to 1 µM |  | C[C@H](c1ccccc1Cl)n1nnc2c1CCN(c1cn[nH]c(=O)c1Cl)C2 [drawing 995]
24 | 1e-05 to 1 µM |  | O=c1[nH]ncc(N2CCc3c(ncn3Cc3ccc(F)cc3Cl)C2)c1Cl [drawing 998]
25 | 1e-05 to 1 µM |  | O=c1[nH]ncc(N2CCc3c(ncn3Cc3ccccc3Cl)C2)c1Cl [drawing 1000]
26 | 1e-05 to 1 µM |  | C[C@@H](c1ccccc1Cl)n1nnc2c1CCN(c1cn[nH]c(=O)c1Cl)C2 [drawing 1001]

Second part, the compound before the results:

Row | SMILES | IC50 [1] | IC50
27 | Cc1ccccc1CN1C[C@@H](C)N(c2cn[nH]c(=O)c2Cl)CC1=O | 5 to 10 µM | 
28 | O=c1[nH]ncc(N2CCc3c(ncn3Cc3ccccc3OC(F)(F)F)C2)c1Cl | 1e-05 to 1 µM | 
29 | CCc1ncccc1CN1CCN(c2cn[nH]c(=O)c2Cl)CC1 | 1e-05 to 1 µM | 
30 | O=C1CN(c2cn[nH]c(=O)c2Cl)CCN1Cc1cc(F)ccc1C(F)(F)F |  | 1e-05 to 1 µM
31 | CCc1ncccc1CN1CCN(c2cn[nH]c(=O)c2Cl)C(C)C1 (stereo not drawn) | 5 to 10 µM | 
32 | O=C1CN(c2cn[nH]c(=O)c2Cl)CCN1Cc1ccccc1Cl | 1e-05 to 1 µM | 
33 | O=C1CN(c2cn[nH]c(=O)c2Cl)CCN1Cc1ccccc1C(F)F | 1e-05 to 1 µM | 
34 | CCc1ncccc1CN1CCN(c2cn[nH]c(=O)c2C#N)CC1 | 5 to 10 µM | 
35 | CCc1nccc(C)c1CN1CCN(c2cn[nH]c(=O)c2Cl)CC1 | 1 to 5 µM | 
36 | CC(c1ccc(F)cc1C(F)F)n1[nH]c(=O)c2c1CCN(c1cn[nH]c(=O)c1Cl)C2 (stereo not drawn) | 1e-05 to 1 µM | 
37 | Cc1ccccc1CN1CCN(c2cn[nH]c(=O)c2Br)CC1=O | 1e-05 to 1 µM | 
38 | O=c1[nH]ncc(N2CCc3c(ncn3Cc3ccc(F)cc3C(F)(F)F)C2)c1Cl [drawing 942] | 1e-05 to 1 µM | 
39 | O=c1[nH]ncc(N2CCc3c(ncn3Cc3ccccc3C(F)(F)F)C2)c1Cl [drawing 944] | 1e-05 to 1 µM | 
40 | O=c1[nH]ncc(N2CCc3c(ncn3Cc3ccccc3C(F)(F)F)C2)c1Br [drawing 950] | 1e-05 to 1 µM | 
41 | O=c1[nH]ncc(N2CCc3c(cnn3Cc3ccc(F)cc3C(F)(F)F)C2)c1Cl [drawing 951] | 1e-05 to 1 µM | 
42 | N#Cc1c(N2CCc3c(ncn3Cc3ccccc3C(F)(F)F)C2)cn[nH]c1=O [drawing 956] | 1 to 5 µM | 
43 | CCc1cc(F)ccc1Cn1cnc2c1CCN(c1cn[nH]c(=O)c1Cl)C2 [drawing 958] | 1e-05 to 1 µM | 

Row | SMILES | IC50 [1] | IC50
44 | N#Cc1c(N2CCc3c(nnn3Cc3ccccc3C(F)(F)F)C2)cn[nH]c1=O [drawing 959] | 1 to 5 µM | 
45 | O=c1[nH]ncc(N2CCc3c(ncn3Cc3ccc(F)cc3C(F)F)C2)c1Cl [drawing 960] | 1e-05 to 1 µM | 
46 | COCc1ncccc1Cn1cnc2c1CCN(c1cn[nH]c(=O)c1Cl)C2 [drawing 966] | 1 to 5 µM | 
47 | CCS(=O)(=O)c1nc2c(n1Cc1ccccc1C(F)(F)F)CCN(c1cn[nH]c(=O)c1Cl)C2 [drawing 971] | 1e-05 to 1 µM | 
48 | O=c1[nH]ncc(N2CCc3c(c(=O)[nH]n3Cc3ccccc3C(F)(F)F)C2)c1Cl [drawing 972] | 1e-05 to 1 µM | 
49 | C[C@@H]1Cc2c(nnn2[C@@H](C)c2ccc(F)cc2C(F)(F)F)CN1c1cn[nH]c(=O)c1Cl [drawing 974] | 1e-05 to 1 µM | 
50 | CN1CCN(Cc2nn(Cc3ccccc3C(F)F)c3c2CN(c2cn[nH]c(=O)c2Cl)CC3)C(=O)C1 [drawing 975] | 1e-05 to 1 µM | 
51 | C[C@H](c1ccc(F)cc1C(F)(F)F)n1nnc2c1CCN(c1cn[nH]c(=O)c1Cl)[C@H]2C [drawing 976] | 1e-05 to 1 µM | 
52 | CC(c1ccc(F)cc1C(F)F)n1nc(C(N)=O)c2c1CCN(c1cn[nH]c(=O)c1Cl)C2 (stereo not drawn) [drawing 983] | 1e-05 to 1 µM | 
53 | CNC(=O)c1nn(Cc2ccc(F)cc2C(F)F)c2c1CN(c1cn[nH]c(=O)c1Cl)CC2 [drawing 985] | 1e-05 to 1 µM | 
54 | C[C@@H]1Cc2c(c(C(N)=O)nn2Cc2ccccc2C(F)(F)F)CN1c1cn[nH]c(=O)c1Cl [drawing 986] | 1e-05 to 1 µM | 
55 | C[C@@H](c1ccccc1C(F)(F)F)N1CCN(c2cn[nH]c(=O)c2Cl)CC1=O [drawing 987] | 1e-05 to 1 µM | 
56 | C[C@H](c1ccc(F)cc1C(F)(F)F)N1C[C@@H](C)N(c2cn[nH]c(=O)c2Cl)CC1=O [drawing 992] | 1e-05 to 1 µM | 
57 | C[C@@H](c1ccc(F)cc1C(F)(F)F)N1CCN(c2cn[nH]c(=O)c2Cl)CC1=O [drawing 993] | 1e-05 to 1 µM | 
58 | O=c1[nH]ncc(N2CCc3c(nnn3Cc3ccc(F)cc3CC(F)(F)F)C2)c1Cl [drawing 994] | 1e-05 to 1 µM | 
59 | CNC(=O)c1nc2c(n1Cc1ccccc1C(F)(F)F)CCN(c1cn[nH]c(=O)c1Cl)C2 [drawing 996] | 1e-05 to 1 µM | 
60 | NC(=O)c1nc2c(n1Cc1ccccc1C(F)(F)F)CCN(c1cn[nH]c(=O)c1Cl)C2 [drawing 997] | 1e-05 to 1 µM | 
